According to patent US5106976A, “Fused pyrazine sulfoxide derivatives for use as antiulcer agents” (Nippon Chemiphar Co., Ltd., priority 1986, dated 1992):
Like-named read-outs stand apart in the source and are kept apart here.

Tests used:
[1] = tested on: secretion of gastric acid; experiment: Inhibitory action against secretion of gastric acid (pylorus-ligated rats, Shay method); type: in vivo, male Donryu rats; settings: read-out: Suppressive action against secretion of gastric acid
Procedure: Under ether anesthesia, the pylorus of the rat was ligated and each test compound was administered intraduodenally. Four hours later, each rat was killed and the stomach was removed to collect the gastric juice. The inhibitory action was determined by comparing the acid output which was obtained by titration to pH 7.0 with 0.1-N NaOH by means of an automatic titrator, with the corresponding value of a control rat prepared in the same manner except that a vehicle alone was administered.

[2] = Water-immersion stress-induced erosions (gastric lesion model); type: in vivo, male Donryu rats; settings: rat, 10 minutes before stressing, 7 hours immersion
Procedure: Two different types of gastric lesion models were induced in male Donryu rats (180 to 240 g) which had been deprived of food but allowed free acess to water for 24 to 48 hours prior to experiments. Rats fasted for 24 hours before experiments were placed in a restraint cage. The animals were immersed vertically to the level of the xiphoid process in a water bath (21° C.) for 7 hours and then killed. The stomach of each rat was removed and inflated by injecting 10 ml of 1% formalin to fix the inner and outer layers of the gastric walls. This formalin treatment was performed in all of the following experiments. Subsequently, the stomach was incised along a greater curvature and examined for any erosion in the glandular portion. Each test compound or a vehicle alone was given orally 10 minutes before stressing.

[3] = HCl-ethanol-induced erosions (gastric lesion model); type: in vivo, male Donryu rats; settings: rat, 30 minutes before ethanol treatment
Procedure: Two different types of gastric lesion models were induced in male Donryu rats (180 to 240 g) which had been deprived of food but allowed free acess to water for 24 to 48 hours prior to experiments.
A hydrochloric acid-ethanol solution (150 mM HCl in 60% ethanol) was given orally to rats in a dose of 1 ml/200 g, which rats had been fasted for 24 hours before experiments. One hour later, each animal was killed and the stomach was examined for any erosion in the glandular portion. Each test compound or a vehicle alone was given orally 30 minutes before ethanol treatment.

[4] = target: T1, H^+ +K^+ ATPase (Oryctolagus cuniculus, UniProt P27112); experiment: H+ + K+ ATPase inhibitory effect (vesicles from rabbit gastric mucosa cells); type: biochemical; settings: 2×10^-4 M test compound, 25 min room temperature preincubation at pH 6.0; reaction pH 7.4, 37° C., 15 min
T1 construct: gastric acid secretory cells of a rabbit gastric mucosa were isolated and vesicle containing H^+ +K^+ ATPase was prepared; from tissue; host or cells: rabbit gastric mucosa, acid secretory cells; vesicles by Ficoll discontinuous density gradient
T1 sequence (P27112 whole entry): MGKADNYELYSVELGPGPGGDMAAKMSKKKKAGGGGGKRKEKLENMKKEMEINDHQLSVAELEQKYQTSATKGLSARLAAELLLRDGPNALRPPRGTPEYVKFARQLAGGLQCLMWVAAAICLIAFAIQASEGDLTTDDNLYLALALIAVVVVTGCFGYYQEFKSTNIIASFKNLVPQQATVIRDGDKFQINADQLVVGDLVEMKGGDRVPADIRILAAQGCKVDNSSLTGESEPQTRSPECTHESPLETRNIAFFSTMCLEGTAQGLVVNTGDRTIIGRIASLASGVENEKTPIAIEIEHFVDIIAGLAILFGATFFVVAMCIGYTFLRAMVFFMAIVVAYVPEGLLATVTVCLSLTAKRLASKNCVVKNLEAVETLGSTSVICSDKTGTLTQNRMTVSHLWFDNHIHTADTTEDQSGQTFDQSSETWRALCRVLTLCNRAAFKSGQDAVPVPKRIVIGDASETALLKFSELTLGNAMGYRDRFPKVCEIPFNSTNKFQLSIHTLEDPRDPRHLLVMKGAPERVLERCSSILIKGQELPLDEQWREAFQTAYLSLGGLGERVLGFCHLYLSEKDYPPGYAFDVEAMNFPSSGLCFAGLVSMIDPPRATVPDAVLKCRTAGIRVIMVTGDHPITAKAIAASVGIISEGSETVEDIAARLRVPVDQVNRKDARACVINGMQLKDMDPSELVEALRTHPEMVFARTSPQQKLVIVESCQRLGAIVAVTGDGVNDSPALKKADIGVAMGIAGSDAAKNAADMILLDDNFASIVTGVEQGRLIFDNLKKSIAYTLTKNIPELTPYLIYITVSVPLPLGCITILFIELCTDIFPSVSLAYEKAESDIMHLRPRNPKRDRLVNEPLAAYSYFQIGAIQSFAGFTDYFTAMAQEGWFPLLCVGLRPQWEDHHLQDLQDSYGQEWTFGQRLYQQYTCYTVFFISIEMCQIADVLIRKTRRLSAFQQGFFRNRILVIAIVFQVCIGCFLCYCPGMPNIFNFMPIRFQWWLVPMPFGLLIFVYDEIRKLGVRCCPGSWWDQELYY
T1 sequence (P18597 whole entry partner): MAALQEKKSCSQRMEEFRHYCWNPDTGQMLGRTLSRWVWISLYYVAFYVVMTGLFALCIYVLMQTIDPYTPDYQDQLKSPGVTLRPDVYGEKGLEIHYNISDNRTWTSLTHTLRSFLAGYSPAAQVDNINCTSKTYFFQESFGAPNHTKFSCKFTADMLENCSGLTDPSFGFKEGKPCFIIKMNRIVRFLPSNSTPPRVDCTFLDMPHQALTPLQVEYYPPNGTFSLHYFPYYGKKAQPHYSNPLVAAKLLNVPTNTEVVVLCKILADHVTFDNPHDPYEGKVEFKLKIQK
Procedure: Following the method of Forte et al [J. Applied Physiol., 32, 714-717 (1972)], gastric acid secretory cells of a rabbit gastric mucosa were isolated and vesicle containing H^+ +K^+ ATPase was prepared by centrifuging the cells in Ficoll of discontinuous density gradient. After the enzyme was incubated at room temperature for 25 min. in 0.5 ml of a solution which contained 5 mM of an imidazole buffer (pH 6.0) and 2×10^-4 M of each test compound, the mixture was heated to 37° C. at which it was allowed to stand for further 5 min. To the mixture was added 0.5 ml of a solution which contained 4 mM of magnesium chloride, 80 mM of an imidazole buffer (pH 7.4), 20 mM of potassium chloride and 4 mM of ATP. The resulting mixture was caused to react at 37° C. for 15 min., and 1 ml of a 24% solution of trichloroacetic acid was then added to terminate the reaction. The inorganic phosphorus liberated was quantitatively analyzed by the method proposed by Taussky and Shorr [J. Biol. Chem., 202, 675- 685 (1953)]. The K^+ -dependent activity of the ATPase was determined by subtracting its activity obtained when no potassium chloride was contained. The results are set forth in Table 1 in which Compound Nos. 1-7 are the sulfoxide derivatives prepared in the hereinafter-described Examples 1-7, respectively.

[5] = Rattus norvegicus, intraduodenal, 4 h
[6] = 100 mg/kg intraduodenal, rat, 4 hours

inhibition at 200 µM [4] | SMILES | inhibition in vivo at 100 mg/kg [1, 6] | further results
 | CNC(=NCCSCc1nc[nH]c1C)NC#N [Cimetidine, N-cyano-N'-methyl-N"-[2-[[(5-methyl-1H-imidazol-4-yl)methyl]thio]-ethyl]guanidine, reference compound] |  | inhibition in vivo at 10 mg/kg [1, 5]: 25.3%; inhibition in vivo at 30 mg/kg [1, 5]: 59.1%; inhibition in vivo at 100 mg/kg [1, 5]: 80.3%; Inhibition on Water-Immersion stress-induced erosions ([2]; 60 mg/kg oral): 49%; Inhibition on Water-Immersion stress-induced erosions ([2]; 200 mg/kg oral): 87%
92.3% | CN(C)c1ccccc1C[S+]([O-])c1nc2ncccc2[nH]1 (stereo not shown) [Compound No. 1, 2-(2-dimethylaminobenzylsulfinyl)imidazo[4,5-b]pyridine] | 95.1% | Inhibition on HCl--Ethanol-induced Erosions ([3]; 10 mg/kg oral): 37%; Inhibition on HCl--Ethanol-induced Erosions ([3]; 30 mg/kg oral): 97%; inhibition in vivo at 10 mg/kg ([1]; 10 mg/kg intraduodenal, rat, 4 hours): 53%; inhibition in vivo at 30 mg/kg ([1]; 30 mg/kg intraduodenal, rat, 4 hours): 79%; Inhibition on Water-Immersion stress-induced erosions ([2]; 30 mg/kg oral): 66%; Inhibition on Water-Immersion stress-induced erosions ([2]; 100 mg/kg oral): 87%
96.8% | [O-][S+](Cc1ccccn1)c1cnc2ccccc2n1 (stereo not shown) [Compound No. 2, 2-(2-pyridylmethylsulfinyl)quinoxaline] | 54.8% | 
99.5% | Cc1nc2ccccc2nc1[S+]([O-])Cc1ccccn1 (stereo not shown) [Compound No. 3, 3-methyl-2-(2-pyridylmethylsulfinyl)quinoxaline] | 54.7% | 
89.4% | Cc1nc2cccnc2nc1[S+]([O-])Cc1ccccn1 (stereo not shown) [Compound No. 4, 2-methyl-3-(2-pyridylmethylsulfinyl)pyrido[2,3-b]pyrazine] | 96.7% | 
100% | CN(C)c1ccccc1C[S+]([O-])c1cnc2ccccc2n1 (stereo not shown) [Compound No. 5, 2-(2-dimethylaminobenzylsulfinyl)quinoxaline] | 55.1% | 
100% | Cc1nc2ccccc2nc1[S+]([O-])Cc1ccccc1N(C)C (stereo not shown) [Compound No. 6, 2-(2-dimethylaminobenzylsulfinyl)-3-methylquinoxaline] | 89.6% | 
80.8% | Cc1cc2nc(C)c([S+]([O-])Cc3ccccc3N(C)C)nc2cc1C (stereo not shown) [Compound No. 7, 2-(2-dimethylaminobenzylsulfinyl)-3,6,7-trimethylquinoxaline] | 46.9% | 
